Reference: patent publication EP0317053B1, “Trigramin- a platelet aggregation inhibiting polypeptide” (Temple University of the Commonwealth System of Higher …, priority 1987, dated 1989)
Where no end group is shown, it is not given here.

Legend:
[1] = Hamster mesentery bleeding time during continuous intravenous infusion; format: in vivo, golden Syrian hamsters; conditions: 2 ng/kg/min; one hamster; positive control
Protocol: Female golden Syrian hamsters (90-150 g) were maintained on food and water ad libitum, but fasted overnight prior to their use in the present experiment. After the administration of anesthesia (65 mg/kg sodium pentobarbital, i.p.), the animals were shaved in preparation for surgery. The trachea was intubated with PE-100 polyethylene tubing to facilitate spontaneous breathing. Cannulation of the right femoral vein was performed to provide an intravenous route for supplemental anesthesia as well as for the administration of various control and experiment agents. A catheter was introduced into the right carotid artery for the continuous monitoring of arterial blood pressure, and a rectal temperature probe was inserted. […]
The shaved abdomen was opened by a mid-line incision and a portion of the small intestine was exteriorized and draped over a lucite pedestal. […] Bleeding was observed through Zeiss dissecting microscope (20 X) and bleeding time was recorded from the time of the cut until the cessation of bleeding by the formation of a hemostatic plug. Each animal was used as its own control with bleeding time determined both during the infusion of saline and the selected experimental agent. […] Four additional animals were infused with trigramin while arterial blood pressure was continuously monitored to determine if it had any direct effect on systemic blood pressure. […]

GPIIb-GPIIIa complex = test: Binding of 125I-trigramin to human platelets; conditions: both ligands

Compound | time after the completion of the infusion until bleeding ceased [1] | inhibition of the binding of ¹²⁵I-trigramin and of ¹²⁵I-fibrinogen to human platelets (GPIIb-GPIIIa complex)
CC#CCC(C)[C@H](O)/C=C/[C@@H]1[C@H]2C/C(=C/CCCC(=O)O)C[C@H]2C[C@H]1O (some centres unmarked) [Iloplrost] | approximately 9 minutes | 
GQQHHLGGAKQAGDV |  | inhibited
